Laboratory results as given in patent US10457709B2, “Antimicrobial peptides, their variants and uses” (priority 2015, dated 2019).
Where two headings read alike, the source gives them in different places. Square brackets hold non-standard residues; d marks the D form. Peptide text beside a SMILES is read from it.

Legend:
[1] = system: Acinetobacter baumannii clinical strains; format: cell-based; design: Minimum inhibitory concentration: unit: μg/ml; details: microdilution, Muller Hinton broth-cation adjusted, 0.02% BSA, 0.2% acetic acid
In short: (§1)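 MIC = lowest concentration without visual growth after 20–24 h at 37° C. Microbroth dilution, 5.0×10^5 cfu/ml, 0.125–128 μg/ml range; MH broth for bacteria, potato dextrose broth for yeasts.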

[2] = system: Enterobacter cloacae clinical strains; format: cell-based; design: Minimum inhibitory concentration: unit: μg/ml; details: microdilution, Muller Hinton broth-cation adjusted, 0.02% BSA, 0.2% acetic acid
In short: as §1

[3] = system: Proteus mirabilis clinical strains; format: cell-based; design: Minimum inhibitory concentration: unit: μg/ml; details: for Minimum inhibitory concentration: microdilution, Muller Hinton broth-cation adjusted, 0.02% BSA, 0.2% acetic acid
In short: as §1

[4] = system: Serratia marcescens clinical strains; format: cell-based; design: Minimum inhibitory concentration: unit: μg/ml; details: for Minimum inhibitory concentration: microdilution, Muller Hinton broth-cation adjusted, 0.02% BSA, 0.2% acetic acid
In short: as §1

[5] = system: Staphylococcus aureus clinical strains; format: cell-based; design: Minimum inhibitory concentration: unit: μg/ml; details: microdilution, Muller Hinton broth-cation adjusted, 0.02% BSA, 0.2% acetic acid
In short: as §1

[6] = system: Streptococcus pneumoniae clinical strains; format: cell-based; design: Minimum inhibitory concentration: unit: μg/ml; details: microdilution, Muller Hinton broth-cation adjusted, 0.02% BSA, 0.2% acetic acid
In short: as §1

[7] = system: Candida albicans clinical strains; test: MIC, clinical yeast strains; format: cell-based; design: unit: μg/ml
In short: as §1

[8] = system: C. glabrata clinical strains; test: MIC, clinical yeast strains; format: cell-based, Candida glabrata; design: unit: µg/ml
In short: as §1

[9] = system: C. parapsilosis clinical strains; test: MIC, clinical yeast strains; format: cell-based, Candida parapsilosis; design: unit: µg/ml
In short: as §1

[10] = system: C. quillermondiae clinical strains; test: MIC, clinical yeast strains; format: cell-based, Candida quillermondiae; design: unit: μg/ml; details: C. quillermondiae clinical yeast strain 1
In short: as §1

[11] = system: Escherichia coli clinical strains; format: cell-based; details: microdilution, Muller Hinton broth-cation adjusted, 0.02% BSA, 0.2% acetic acid
In short: as §1

[12] = system: Klebsiella pneumoniae clinical strains; format: cell-based; details: microdilution, Muller Hinton broth-cation adjusted, 0.02% BSA, 0.2% acetic acid
In short: as §1

[13] = system: Pseudomonas aeruginosa clinical strains; format: cell-based; details: microdilution, Muller Hinton broth-cation adjusted, 0.02% BSA, 0.2% acetic acid
In short: as §1

[14] = system: all the bacteria and yeasts tested; format: cell-based
In short: as §1

CC[C@@H](C)[C@@H](NC(=O)[C@@H](Cc1c[nH]c2ccccc12)NC(=O)[C@H](N)CCCCN)C(=O)N[C@@H](C(=O)N[C@H](Cc1c[nH]c2ccccc12)C(=O)N[C@H](CCCNC(=N)N)C(=O)N[C@H](Cc1c[nH]c2ccccc12)C(=O)N[C@H](CCCNC(=N)N)C(=O)N[C@H](Cc1ccccc1)C(=O)N[C@H](CCCCN)C(=O)N[C@H](CCCNC(=N)N)C(=O)O)C(C)C [Chain201D] (H-[dK][dW][dI][dV][dW][dR][dW][dR][dF][dK][dR]-OH)
32: Minimum inhibitory concentration ([3]; Proteus mirabilis clinical strain 2)
64 to 128 µg/mL: MICs against Proteus mirabilis ([3]; clinical strains) | MICs against Serratia marcescens ([4]; clinical strains)
>128: Minimum inhibitory concentration ([3]; Proteus mirabilis clinical strain 1) | Minimum inhibitory concentration ([3]; Proteus mirabilis clinical strain 4) | Minimum inhibitory concentration ([3]; Proteus mirabilis clinical strain 5)
0.5 to 32 µg/mL: MICs against all the bacteria and yeasts tested [14]
128: Minimum inhibitory concentration ([4]; Serratia marcescens clinical strain 5)
64: Minimum inhibitory concentration ([3]; Proteus mirabilis clinical strain 3) | Minimum inhibitory concentration ([4]; Serratia marcescens clinical strain 1) | Minimum inhibitory concentration ([4]; Serratia marcescens clinical strain 2) | Minimum inhibitory concentration ([4]; Serratia marcescens clinical strain 3) | Minimum inhibitory concentration ([4]; Serratia marcescens clinical strain 4) | Minimum inhibitory concentration ([8]; C. glabrata clinical yeast strain 4)
4: Minimum inhibitory concentration ([1]; Acinetobacter baumannii clinical strain 1) | Minimum inhibitory concentration ([1]; Acinetobacter baumannii clinical strain 2) | Minimum inhibitory concentration ([1]; Acinetobacter baumannii clinical strain 3) | Minimum inhibitory concentration ([1]; Acinetobacter baumannii clinical strain 4) | Minimum inhibitory concentration ([1]; Acinetobacter baumannii clinical strain 5) | Minimum inhibitory concentration ([6]; Streptococcus pneumoniae clinical strain 2) | Minimum inhibitory concentration ([6]; Streptococcus pneumoniae clinical strain 4) | Minimum inhibitory concentration ([6]; Streptococcus pneumoniae clinical strain 5) | Minimum inhibitory concentration ([12]; Klebsiella pneumoniae clinical strain 3) | Minimum inhibitory concentration ([12]; Klebsiella pneumoniae clinical strain 4) | Minimum inhibitory concentration ([13]; Pseudomonas aeruginosa clinical strain 1) | Minimum inhibitory concentration ([13]; Pseudomonas aeruginosa clinical strain 2) | Minimum inhibitory concentration ([13]; Pseudomonas aeruginosa clinical strain 3)
2: Minimum inhibitory concentration ([2]; Enterobacter cloacae clinical strain 2) | Minimum inhibitory concentration ([2]; Enterobacter cloacae clinical strain 3) | Minimum inhibitory concentration ([2]; Enterobacter cloacae clinical strain 4) | Minimum inhibitory concentration ([6]; Streptococcus pneumoniae clinical strain 3) | Minimum inhibitory concentration ([12]; Klebsiella pneumoniae clinical strain 1) | Minimum inhibitory concentration ([12]; Klebsiella pneumoniae clinical strain 2) | Minimum inhibitory concentration ([12]; Klebsiella pneumoniae clinical strain 5) | Minimum inhibitory concentration ([13]; Pseudomonas aeruginosa clinical strain 4) | Minimum inhibitory concentration ([13]; Pseudomonas aeruginosa clinical strain 5)
8: Minimum inhibitory concentration ([6]; Streptococcus pneumoniae clinical strain 1) | Minimum inhibitory concentration ([7]; Candida albicans clinical yeast strain 2) | Minimum inhibitory concentration ([7]; Candida albicans clinical yeast strain 3) | Minimum inhibitory concentration ([7]; Candida albicans clinical yeast strain 5) | Minimum inhibitory concentration ([8]; C. glabrata clinical yeast strain 1) | Minimum inhibitory concentration ([8]; C. glabrata clinical yeast strain 2) | Minimum inhibitory concentration ([8]; C. glabrata clinical yeast strain 3) | Minimum inhibitory concentration ([9]; C. parapsilosis clinical yeast strain 1) | Minimum inhibitory concentration ([9]; C. parapsilosis clinical yeast strain 2) | Minimum inhibitory concentration ([9]; C. parapsilosis clinical yeast strain 3) | Minimum inhibitory concentration ([9]; C. parapsilosis clinical yeast strain 4) | Minimum inhibitory concentration [10]
1: Minimum inhibitory concentration ([2]; Enterobacter cloacae clinical strain 1) | Minimum inhibitory concentration ([2]; Enterobacter cloacae clinical strain 5) | Minimum inhibitory concentration ([5]; Staphylococcus aureus clinical strain 1) | Minimum inhibitory concentration ([5]; Staphylococcus aureus clinical strain 2) | Minimum inhibitory concentration ([5]; Staphylococcus aureus clinical strain 3) | Minimum inhibitory concentration ([5]; Staphylococcus aureus clinical strain 4) | Minimum inhibitory concentration ([5]; Staphylococcus aureus clinical strain 5) | Minimum inhibitory concentration ([11]; Escherichia coli clinical strain 2) | Minimum inhibitory concentration ([11]; Escherichia coli clinical strain 3) | Minimum inhibitory concentration ([11]; Escherichia coli clinical strain 4) | Minimum inhibitory concentration ([11]; Escherichia coli clinical strain 5)
16: Minimum inhibitory concentration ([7]; Candida albicans clinical yeast strain 1) | Minimum inhibitory concentration ([7]; Candida albicans clinical yeast strain 4) | Minimum inhibitory concentration ([11]; Escherichia coli clinical strain 1)
